Experimental data as given in patent US20050267166A1, “Continuous dosing regimen” (priority 2004, published 2005).
Marks after values point to notes of the source that are not given here.

Columns and labels:
[1] = test system: MDA-MB-468 breast carcinoma; experiment: MDA-MB-468 breast flank xenograft model (staged); assay type: in vivo, human
Method: (§1) Following inoculation of tumor cells, tumors were passaged three times in mice before using the fragments to generate single cell suspensions. Multiple animals were used as donors. Single cell suspensions were generated by homogenizing the minced tumor tissue in RPMI 1640 media. Cell suspensions were washed three times to remove debris and other foreign materials. Viable cells were counted by trypan blue exclusion technique using a hemocytometer. Mice were injected subcutaneously with 0.5 mL of the cell suspension containing 1×10^6 cells.
For determination of the efficacy of N-(2-((4-hydroxyphenyl)amino)pyrid-3-yl)-4-methoxybenzenesulfonamide in the MDA-MB-468 Breast Flank Xenograft model, tumor cells derived from serially passaged tumor fragments were inoculated subcutaneously in female nude mice on day 0. On day 10, mice bearing established tumors were size matched and grouped at about 231 mm^3.

[2] = test system: KB oral cancer; experiment: human tumor xenograft in nude mice, KB; assay type: in vivo; conditions: Q1D × 20, 100 mg/kg/day
[3] = test system: H-81 gastric cancer; experiment: human tumor xenograft in nude mice, H-81; assay type: in vivo; conditions: Q5D × 5, 300 mg/kg/day
[4] = test system: M5076 transplantable murine reticulum cell sarcoma
[5] = test system: HCT-15 human colon carcinoma; experiment: HCT-15 human colon carcinoma xenografts; assay type: in vivo
Excerpt: HCT-15 is a human colon carcinoma derived cell line. It is MDR positive, and expresses both mutant p53 and oncogenic K-ras. The HCT-15 cell line has one of the highest levels of mdr-1/P-glycoprotein expression of cells from the NCI tumor cell line panel.
Effect of Cytotoxic Agents on the Growth of HCT-15 Human Colon Carcinoma Xenografts

[6] = test system: HT-1376 bladder; experiment: HT-1376 orthotopic tumor model; assay type: in vivo, human; conditions: d 1-5, 11-15
[7] = tolerability of continuous 21 day once per day dosing in xenograft mice; assay type: in vivo, nude mice; conditions: 50 mg/kg/day
[8] = test system: H-31 breast cancer; experiment: human tumor xenograft in nude mice, H-31; assay type: in vivo; conditions: Q1D × 19, 80 mg/kg/day
[9] = adverse side effects reported in 134 patients; assay type: in vivo, human; conditions: of 134 patients; 200-300 mg QD, 125-175 mg BID
Method: For 134 patients tested, at doses of about 200 mg QD, 250 mg QD, 300 mg QD, 125 mg BID, 150 mg BID, and 175 mg BID, 16 reported anemia, of which 11 were Grades I or II and 5 were Grades (III or IV); 1 reported Grade I or II alpoecia; 8 reported Grade I or II neutropenia; and none reported fluid retention, for which Grade I is defined as mild, Grade II is defined as moderate, Grade III is defined as severe, Grade IV is defined as life threatening.

[10] = test system: Calu-6 lung carcinoma; experiment: Calu-6 NSCL flank xenograft model (staged); assay type: in vivo, human
Method: as §1
On day 10, mice bearing established tumors were size matched and grouped at about 233 mm^3.

[11] = in vivo; conditions: mouse, po
[12] = test system: SC-6 gastric cancer; experiment: human tumor xenograft in nude mice, SC-6; assay type: in vivo; conditions: Q5D × 5, 500 mg/kg/day
[13] = test system: COLO320DM colorectal cancer; experiment: human tumor xenograft in nude mice, COLO320DM; assay type: in vivo; conditions: Q1D × 19, 120 mg/kg/day
[14] = MTD and safety in the 7-day and 21-day QD regimens in patients; assay type: in vivo
Method: In the 7-day QD regimen, the 250 mg QD dose has been determined to be the MTD, as dose limiting toxicities of peripheral neuropathy/ileus were reported in 2 of 6 subjects at the 300 mg QD dose.
The tumor types studied were colorectal (23), sarcoma (5), mesothelioma (3), salivary gland (2), endometrial (2), unknown (2), hepatoma (1), melanoma (1), renal cell (1), lung (1), ovary (1), and granulosa cell (1). […] Doses were escalated by 50 mg/day (25 mg twice per day). Three patients were initially treated at each dose level. […] If additional patients experienced dose-limiting toxicity, on occasion the dose level was expanded to nine patients to further assess tolerability. Response assessment was performed every two cycles.

[15] = test system: LC-11 lung cancer; experiment: human tumor xenograft in nude mice, LC-11; assay type: in vivo; conditions: Q1D × 8, 150 mg/kg/day
[16] = test system: MX-1 breast cancer; experiment: human tumor xenograft in nude mice, MX-1; assay type: in vivo; conditions: Q5D × 5, 450 mg/kg/day
[17] = test system: MiaPaCa-2 pancreatic; experiment: MiaPaCa-2 orthotopic tumor model; assay type: in vivo, human; conditions: for % T/C: orthotopic, d 1-5, 11-15
Excerpt: (2-((4-hydroxyphenyl)amino)pyrid-3-yl)-4-methoxybenzenesulfonamide inhibited the growth of a variety of human tumor xenografts that were allowed to grow into established tumors prior to the initiation of treatment. As summarized below, activity was seen against established tumors derived from colon, breast and lung carcinomas. (2-((4-hydroxyphenyl)amino)pyrid-3-yl)-4-methoxybenzenesulfonamide was also active against a human pancreatic tumor xenograft grown in the orthotopic site.

[18] = test system: C26 colon tumors; experiment: C26 colon tumors grown in the flank of CDF-1 mice; assay type: in vivo
[19] = test system: SC-2 gastric cancer; experiment: human tumor xenograft in nude mice, SC-2; assay type: in vivo; conditions: Q1D × 19, 120 mg/kg/day
[20] = 150 mg/kg orally once a day for 5 days
[21] = oral 75 mg/kg/d QD, d 10-14, 20-24

COc1ccc(S(=O)(=O)Nc2cccnc2Nc2ccc(O)cc2)cc1 [ABT-751, N-(2-((4-hydroxyphenyl)amino)pyrid-3-yl)-4-methoxybenzenesulfonamide]
antitumor activity as single agent ([1]; 100 and 75 mg/kg/day (5 days on/5 days off)×2, 50 mg/kg/day daily): dose-dependent antitumor activity
response in combination with docetaxel ([1]; in combination with docetaxel at 33.3 mg/kg/day): greater than additive responses
T/C (%) [2]: 15%
T/C (%) [3]: 40%
ILS (percent increase in life span) [4, 20]: 42%
T/C (tumor mass of test group divided by tumor mass of control group) [4, 20]: 13%
antitumor activity in the M5076 model ([4]; in words): significant antitumor activity
% ILS ([5]; 50 mg/kg/d PO, QD, days 1-8): 34%
T/C ([5]; 50 mg/kg/d PO, QD, days 1-8, 2 trials): 50 (2)
efficacy in HCT-15 xenografts ([5]; in words): effective in inhibiting tumor growth
% T/C ([6]; oral 100 mg/kg/d QD): 63%
% T/C ([6]; oral 100 mg/kg/d b.i.d.): 86^e %
adverse side effects [7]: essentially without adverse side effects
T/C (%) [8]: 13%
patients reporting Grade I or II alopecia [9]: 1
patients reporting Grade I or II neutropenia [9]: 8
patients reporting anemia [9]: 16
patients reporting anemia Grades I or II [9]: 11
patients reporting anemia Grades III or IV [9]: 5
patients reporting fluid retention [9]: none
antitumor activity as single agent ([10]; 100 and 75 mg/kg/day, (5 day on/5 day off)×2): significant antitumor activity
response in combination with cisplatin ([10]; in combination with cisplatin): greater than additive responses
% T/C ([10]; oral 50 mg/kg/d QD, d 1-21): 54%
% ILS [10, 21]: 58%
% T/C [10, 21]: 50%
% T/C ([10]; oral 100 mg/kg/d QD, d 10-14, 20-24): 37%
MTD [11]: ~150 mg/kg
T/C (%) [12]: 22%
T/C (%) [13]: 42%
MTD ([14]; 7-day QD regimen): 250 mg
MTD ([14]; QD regimen given for 21 days): 200 mg
dose limiting toxicities of fatigue, anorexia and suspect small bowel obstruction, subjects affected ([14]; human, in vivo): ⅔
myelosuppression, renal or hepatic toxicity ([14]; human, in vivo): no significant
dose limiting toxicities of peripheral neuropathy/ileus, subjects affected ([14]; human, in vivo, 7 days): 2 of 6
T/C (%) [15]: 93%
T/C (%) [16]: 21%
antitumor activity in combination with gemcitabine compared to single agent alone ([17]; in combination with gemcitabine, MiaPaCa2 pancreatic xenograft): increase in antitumor activity
% T/C ([17]; oral 75 mg/kg/d QD): 79%
% T/C ([17]; oral 100 mg/kg/d QD): 56%
antitumor activity against C26 colon tumors ([18]; 5-day schedule): only marginally active
antitumor activity against C26 colon tumors ([18]; extended dosing): significant antitumor response
T/C (%) [19]: 28%
